Experimental data from the NIST ThermoML archive (doi:10.1016/j.fluid.2016.10.027).
± gives the expanded uncertainty stated by the source.

How the values were obtained:
[1] = 101.33 kPa, Liquid, Vibrating tube method
[2] = refractive index (Na D-line) (dimensionless); conditions: 101.33 kPa, Liquid, Standard Abbe refractometry

Structure (SMILES)	mass density ([1]; 298.15 K)	refractive index ([2]; 298.15 K)	mass density ([1]; 293.15 K)	refractive index ([2]; 293.15 K)
CCC(C)O (configuration not stated) [butan-2-ol]	804 ± 2 kg/m3	1.3962 ± 0.0005	–	–
CCC(C)OC(C)=O (configuration not stated) [1-methylpropyl ethanoate]	–	–	871 ± 2 kg/m3	1.3876 ± 0.0006
O [water]	–	1.332 ± 0.0005	–	–
CC(=O)O [acetic acid]	1044.6 ± 2 kg/m3	1.3703 ± 0.0005	–	–
